“And” between values parts separate entries of the source, which are not always exact repeats. Equal values may be shown once.
target: T1, hSTING (Homo sapiens, UniProt Q86WV6, G230A/H232R/R293Q/R71H); test: STING reporter assay (luciferase) in THP1-Dual KO-IFNAR2 cells activated with 2′3′cGAMP; format: cell-based; conditions: THP1-Dual KO-IFNAR2 cells; 2′3′cGAMP 15 μM final, Lipofectamine 2000; 24 h; luciferase reporter activity; read-out: hSTING EC50
T1 construct: host or cells: THP1-Dual KO-IFNAR2 cells
T1 sequence (Q86WV6 whole entry R71H/G230A/H232R/R293Q): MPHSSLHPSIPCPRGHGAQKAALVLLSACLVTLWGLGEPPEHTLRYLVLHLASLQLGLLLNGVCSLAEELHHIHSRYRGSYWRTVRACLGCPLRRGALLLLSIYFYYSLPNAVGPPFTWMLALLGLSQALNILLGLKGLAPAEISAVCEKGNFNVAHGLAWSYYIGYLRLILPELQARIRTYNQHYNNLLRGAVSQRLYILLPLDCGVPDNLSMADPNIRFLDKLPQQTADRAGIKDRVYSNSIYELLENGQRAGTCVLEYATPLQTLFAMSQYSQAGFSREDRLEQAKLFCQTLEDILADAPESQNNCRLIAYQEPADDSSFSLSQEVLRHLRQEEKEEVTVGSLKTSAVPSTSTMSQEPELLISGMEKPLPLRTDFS
Experimental: STING pathway activation by the compounds described herein was measured using THP1-Dual™ cells (KO-IFNAR2).
THP1-Dual™ KO-IFNAR2 Cells (obtained from invivogen) were maintained in RPMI, 10% FCS, 5 ml P/S, 2 mM L-glut, 10 mM Hepes, and 1 mM sodium pyruvate. Compounds were spotted in empty 384 well tissue culture plates (Greiner 781182) by Echo for a final concentration of 0.0017-100 μM. Cells were plated into the TC plates at 40 μL per well, 2×10E6 cells/mL. For activation with STING ligand, 2′3′cGAMP (MW 718.38, obtained from Invivogen), was prepared in Optimem media.
The following solutions were prepared for each 1×384 plate: • Solution A: 2 mL Optimem with one of the following stimuli: • 60 μL of 10 mM 2′3′cGAMP→150 μM stock • Solution B: 2 mL Optimem with 60 μL Lipofectamine 2000→Incubate 5 min at RT
2 mL of solution A and 2 ml Solution B was mixed and incubated for 20 min at room temperature (RT). 20 μL of transfection solution (A+B) was added on top of the plated cells, with a final 2′3′cGAMP concentration of 15 μM. The plates were then centrifuged immediately at 340 g for 1 minute, after which they were incubated at 37° C., 5% CO2, >98% humidity for 24h. Luciferase reporter activity was then measured. EC50 values were calculated by using standard methods known in the art.
Luciferase reporter assay: 10 μL of supernatant from the assay was transferred to white 384-plate with flat bottom and squared wells. One pouch of QUANTI-Luc™ Plus was dissolved in 25 mL of water. 100 μL of QLC Stabilizer per 25 mL of QUANTI-Luc™ Plus solution was added. 50 μL of QUANTI-Luc™ Plus/QLC solution per well was then added. Luminescence was measured on a Platereader (e.g., Spectramax I3X (Molecular Devices GF3637001)).
Luciferase reporter activity was then measured. EC50 values were calculated by using standard methods known in the art.

Compound	EC50
O=C(Nc1c[nH]c2cc(F)c(F)cc12)c1c2ccccc2nn1Cc1ccc(C(F)(F)F)cc1 [Compound 101]	1000 to 5000 nM
O=C(Nc1c[nH]c2cc(F)c(F)cc12)c1c2ccccc2nn1CCC(F)(F)F [Compound 102]	5000 to 100000 nM
Cc1ccc2c(C(=O)Nc3c[nH]c4cc(F)c(F)cc34)cnn2c1 [Compound 104]	200 to 1000 nM
O=C(Nc1c[nH]c2cc(F)c(F)cc12)c1cnc2cc(C(F)(F)F)ccn12 [Compound 105]	1000 to 5000 nM
CC(C)(C)OC(=O)N1CCc2c(C(=O)Nc3c[nH]c4cc(F)c(F)cc34)csc2C1 [Compound 109, tert-butyl 3-((5,6-difluoro-1H-indol-3-yl)carbamoyl)-4.5-dihydrothieno[2,3-c]pyridine-6(7H)-carboxylate]	200 to 1000 nM
CC(C)(C)OC(=O)N1Cc2n[nH]c(C(=O)Nc3c[nH]c4cc(F)c(F)cc34)c2C1 [Compound 110, tert-butyl 3-((5,6-difluoro-1H-indol-3-yl)carbamoyl)-4,6-dihydropyrrolo[3,4-c]pyrazole-5(1H)-carboxylate]	1000 to 5000 nM
CC(C)(C)OC(=O)N1CCn2nc(C(=O)Nc3c[nH]c4cc(F)c(F)cc34)cc2C1 [Compound 111, tert-butyl 2-[(5,6-difluoro-1H-indol-3-yl)carbamoyl]-4H,5H,6H,7H-pyrazolo[1,5-a]pyrazine-5-carboxylate]	1000 to 5000 nM
O=C(Nc1c[nH]c2cc(F)c(F)cc12)c1cc2cccnc2s1 [Compound 112, N-(5,6-difluoro-1H-indol-3-yl)thieno[2,3-b]pyridine-2-carboxamide]	1000 to 5000 nM
O=C(Nc1c[nH]c2cc(F)c(F)cc12)c1cn2cc(C(F)(F)F)ccc2n1 [Compound 113, N-(5,6-difluoro-1H-indol-3-yl)-6-(trifluoromethyl)imidazo[1,2-a]pyridine-2-carboxamide]	1000 to 5000 nM
CC(C)(C)OC(=O)N1CCCn2nc(C(=O)Nc3c[nH]c4cc(F)c(F)cc34)cc2C1 [Compound 114, tert-butyl 2-[(5,6-difluoro-1H-indol-3-yl)carbamoyl]-4H,5H,6H,7H,8H-pyrazolo[1,5-a][1,4]diazepine-5-carboxylate]	5000 to 100000 nM
O=C(Nc1c[nH]c2cc(F)c(F)cc12)C1Cc2[nH]nc(C(F)(F)F)c2C1 (stereo not shown) [Compound 115, N-(5,6-difluoro-1H-indol-3-yl)-3-(trifluoromethyl)-1H,4H,5H,6H-cyclopenta[c]pyrazole-5-carboxamide]	5000 to 100000 nM
O=C(Nc1c[nH]c2cc(F)c(F)cc12)c1cc2ccc(Cl)cn2n1 [Compound 116, 6-chloro-N-(5,6-difluoro-1H-indol-3-yl)pyrazolo[1,5-a]pyridine-2-carboxamide]	200 to 1000 nM
CC(C)(C)OC(=O)N1CCc2c(C(=O)Nc3c[nH]c4cc(F)c(F)cc34)ncn2CC1 [Compound 117, tert-butyl 1-[(5,6-difluoro-1H-indol-3-yl)carbamoyl]-5H,6H,7H,8H,9H-imidazo[1,5-d][1,4]diazepine-7-carboxylate]	5000 to 100000 nM
O=C(Nc1c[nH]c2cc(F)c(F)cc12)c1n[nH]c2cc(OC(F)(F)F)ccc12 [Compound 118]	200 to 1000 nM
O=C(Nc1c[nH]c2cc(F)c(F)cc12)c1cn2c(n1)CCC(C(F)(F)F)C2 (stereo not shown) [Compound 120, N-(5,6-difluoro-1H-indol-3-yl)-6-(trifluoromethyl)-5,6,7,8-tetrahydroimidazo[1,2-a]pyridine-2-carboxamide]	5000 to 100000 nM
O=C(Nc1c[nH]c2cc(F)c(F)cc12)c1cccc2nn(Cc3ccc(C(F)(F)F)cc3)cc12 [Compound 121]	200 to 1000 nM
O=C(Nc1c[nH]c2cc(F)c(F)cc12)c1cccc2c1cnn2Cc1ccc(C(F)(F)F)cc1 [Compound 122]	200 to 1000 nM
CCC1Cc2ccc(C(=O)Nc3c[nH]c4cc(F)c(F)cc34)cc2C1 (stereo not shown) [Compound 123]	200 to 1000 nM
O=C(Nc1c[nH]c2cc(F)c(F)cc12)c1ccc2c(c1)OCCCO2 [Compound 124, N-(5,6-difluoro-1H-indol-3-yl)-3,4-dihydro-2H-benzo[b][1,4]dioxepine-7-carboxamide]	200 to 1000 nM
O=C(Nc1c[nH]c2cc(F)c(F)cc12)c1n[nH]c2cc(OCC(F)(F)F)ccc12 [Compound 125]	40 to 200 nM
O=C(Nc1c[nH]c2cc(F)c(F)cc12)c1n[nH]c2cc(NCC(F)(F)F)ccc12 [Compound 126]	40 to 200 nM and 200 to 1000 nM

Compound	EC50
O=C(Nc1c[nH]c2cc(F)c(F)cc12)c1n[nH]c2cc(OCC(F)(F)F)ncc12 [Compound 128]	200 to 1000 nM
O=C(Nc1c[nH]c2cc(F)c(F)cc12)c1n[nH]c2nc(OCC(F)(F)F)ccc12 [Compound 129]	200 to 1000 nM
Cc1nc(C(=O)Nc2c[nH]c3cc(F)c(F)cc23)c2ccc(C(F)(F)F)cn12 [Compound 134]	5000 to 100000 nM
O=C(Nc1c[nH]c2cc(F)c(F)cc12)c1cccc2nn(CCC(F)(F)F)cc12 [Compound 137]	200 to 1000 nM
O=C(Nc1c[nH]c2cc(F)c(F)cc12)c1cccc2c1cnn2CCC(F)(F)F [Compound 138]	1000 to 5000 nM
O=C(Nc1c[nH]c2ccc(Cl)cc12)c1n[nH]c2c1CN(Cc1ccc(C(F)(F)F)cc1)C2 [Compound 142, N-(5-chloro-1H-indol-3-yl)-5-(4-(trifluoromethyl)benzyl)-1,4,5,6-tetrahydropyrrolo[3,4-c]pyrazole-3-carboxamide]	200 to 1000 nM
O=C(Nc1c[nH]c2ccc(Cl)cc12)c1n[nH]c2cc(N3CCC(F)(F)CC3)ncc12 [Compound 143, N-(5-chloro-1H-indol-3-yl)-6-(4,4-difluoropiperidin-1-yl)-1H-pyrazolo[4,3-c]pyridine-3-carboxamide]	5000 to 100000 nM
O=C(Nc1c[nH]c2ccc(Cl)cc12)c1n[nH]c2cc(N3CCN(CC(F)(F)F)CC3)ccc12 [Compound 144]	40 to 200 nM
O=C(Nc1c[nH]c2ccc(Cl)cc12)c1n[nH]c2cc(N3CCC(F)(F)CC3)ccc12 [Compound 146]	40 to 200 nM
O=C(Nc1c[nH]c2ccc(Cl)cc12)c1noc2cc(N3CCC(F)(F)CC3)ccc12 [Compound 147]	40 to 200 nM
O=C(Nc1c[nH]c2ccccc12)c1n[nH]c2cc(OCC(F)(F)F)ccc12 [Compound 148, N-(1H-indol-3-yl)-6-(2,2,2-trifluoroethoxy)-1H-indazole-3-carboxamide]	40 to 200 nM
O=C(Nc1c[nH]c2ccc(Cl)cc12)c1n[nH]c2cc(OCC(F)(F)F)ccc12 [Compound 149]	40 to 200 nM
O=C(Nc1c[nH]c2cc(F)c(F)cc12)c1cnc2cc(OCC(F)(F)F)ccn12 [Compound 150]	40 to 200 nM
O=C(Nc1c[nH]c2cc(F)c(F)cc12)c1n[nH]c2c1CN(CC(F)(F)F)C2 [Compound 151]	5000 to 100000 nM
O=C(Nc1c[nH]c2cc(F)c(F)cc12)c1n[nH]c2nc(N3CCC(F)(F)CC3)c(Cl)cc12 [Compound 152]	200 to 1000 nM
O=C(Nc1c[nH]c2cc(F)c(F)cc12)c1n[nH]c2nc(N3CCC(F)(F)CC3)ccc12 [Compound 154]	200 to 1000 nM
O=C(Nc1c[nH]c2cc(F)c(F)cc12)c1n[nH]c2cc(N3CCC(F)(F)CC3)ccc12 [Compound 155]	40 to 200 nM
CC1(C)CCc2c(C(=O)Nc3c[nH]c4cc(F)c(F)cc34)n[nH]c2C1 [Compound 156]	1000 to 5000 nM
Cn1nc2cc(C(F)(F)F)ccc2c1C(=O)Nc1c[nH]c2cc(F)c(F)cc12 [Compound 157]	5000 to 100000 nM
Cn1nc(C(=O)Nc2c[nH]c3cc(F)c(F)cc23)c2ccc(C(F)(F)F)cc21 [Compound 158]	200 to 1000 nM

same assay, conditions: hSTING EC50, THP1-Dual KO-IFNAR2 cells; 2′3′cGAMP 15 μM final, Lipofectamine 2000; 24 h; luciferase reporter activity

Compound	EC50 [nM]
O=C(Nc1c[nH]c2cc(F)c(F)cc12)c1nn(CCC(F)(F)F)c2ccccc12 [Compound 103]	200 to 1000
O=C(Nc1c[nH]c2cc(F)c(F)cc12)c1nn(Cc2ccc(C(F)(F)F)cc2)c2ccccc12 [Compound 106, N-(5,6-difluoro-1H-indol-3-yl)-1-[[4-(trifluoromethyl)phenyl]methyl]indazole-3-carboxamide]	200 to 1000
